Molecules are shown by their SMILES. Where two headings read alike, the source gives them in different places. Where a SMILES comes first, the peptide text is derived from it. [ ]: non-standard residue; d: D form. dPhe(F5) = N[C@H](Cc1c(F)c(F)c(F)c(F)c1F)C(=O)O; Igl = N[C@H](C(=O)O)C1Cc2ccccc2C1; Hyp = O=C(O)[C@@H]1C[C@@H](O)CN1; 2Thi = N[C@@H](Cc1cccs1)C(=O)O

Assay [1] concerns the target T1, bradykinin receptors in Rat Uterus (Rattus norvegicus, UniProt P25023).
T1 construct: describes the Rat Uterus assay used to analyze the present compounds; from tissue; host or cells: isolated rat uterus
T1 sequence (P25023 1-396): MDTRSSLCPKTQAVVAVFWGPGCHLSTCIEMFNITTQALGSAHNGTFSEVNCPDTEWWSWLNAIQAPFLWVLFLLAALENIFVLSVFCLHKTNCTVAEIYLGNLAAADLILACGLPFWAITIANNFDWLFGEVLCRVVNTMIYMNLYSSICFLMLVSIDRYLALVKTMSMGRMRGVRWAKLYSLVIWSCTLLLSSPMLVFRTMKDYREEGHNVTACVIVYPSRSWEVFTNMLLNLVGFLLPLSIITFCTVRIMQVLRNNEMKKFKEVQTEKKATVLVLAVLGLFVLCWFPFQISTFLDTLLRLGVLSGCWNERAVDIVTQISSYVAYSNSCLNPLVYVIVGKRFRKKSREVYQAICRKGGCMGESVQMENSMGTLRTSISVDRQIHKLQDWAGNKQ
As to the kind of experiment: Rat Uterus functional assay. It counts as cell-based. The source says:
4. Rat Uterus functional assay Trautshold, Handbook of Expt. Pharmacol. […] The Trautshold method was used without changes to the parameters. U.S. Pat. No. 4,693,993, at Column 14, line 10 gives a general description of data analysis for this assay. In this table, I=inhibitor, and numbers in parenthesis are pA2. Agonist activity are given as percent BK activity.

Assay [2] concerns the target T2, bradykinin receptors in Guinea Pig Ileum (Cavia porcellus, UniProt O70526).
T2 construct: describes the Guinea Pig Ileum assay used to analyze the present compounds; from tissue; host or cells: isolated guinea pig ileum
T2 sequence (O70526 1-372): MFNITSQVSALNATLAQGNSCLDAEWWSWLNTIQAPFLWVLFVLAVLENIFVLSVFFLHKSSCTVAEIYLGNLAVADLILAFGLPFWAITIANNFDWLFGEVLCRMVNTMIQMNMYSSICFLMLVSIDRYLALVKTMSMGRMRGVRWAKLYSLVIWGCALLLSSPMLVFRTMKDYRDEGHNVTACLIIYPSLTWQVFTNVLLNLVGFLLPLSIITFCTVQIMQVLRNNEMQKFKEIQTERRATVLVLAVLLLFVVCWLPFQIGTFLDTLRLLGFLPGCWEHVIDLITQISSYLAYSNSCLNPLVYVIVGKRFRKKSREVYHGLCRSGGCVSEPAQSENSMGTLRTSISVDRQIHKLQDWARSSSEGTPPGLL
As to the kind of experiment: Guinea Pig Ileum functional assay. It counts as cell-based. The source says: 5. Guinea Pig Ileum functional assay
Trautshold, Handbook of Expt. Pharmacol. Vol 25, Springer Verlag pp 53-55 (1970) describes the Guinea Pig Ileum assay used to analyze the present compounds. The Trautshold method was used without changes to the parameters. U.S. Pat. No. 4,693,993, at Column 14, line 10 gives a general description of data analysis for this assay.
In this table, I=inhibitor, and numbers in parenthesis are pA2. Agonist activity are given as percent BK activity.

Setting [3] is: number in parenthesis is pA2, read-out: Ileum, pA2 (I=inhibitor) (converted).

As for `N=C(N)NCCC[C@@H](N)C(=O)N[C@@H](CCCNC(=N)N)C(=O)N1CCC[C@H]1C(=O)N1C[C@H](O)C[C@H]1C(=O)NCC(=O)N[C@@H](Cc1c(F)c(F)c(F)c(F)c1F)C(=O)N[C@@H](CO)C(=O)N[C@@H](C(=O)N1[C@H](C(=O)N[C@@H](CCCNC(=N)N)C(=O)O)C[C@@H]2CCCC[C@@H]21)C1Cc2ccccc2C1` [Compound B10164, DArg-Arg-Pro-Hyp-Gly-f5f-Ser-DIgl-Oic-Arg], the Kb was 10 nM in assay [1] and 63.1 nM in assay [2] (setting [3]).
`N=C(N)NCCC[C@@H](N)C(=O)N[C@@H](CCCNC(=N)N)C(=O)N1CCC[C@H]1C(=O)N1C[C@H](O)C[C@H]1C(=O)NCC(=O)N[C@@H](Cc1cccs1)C(=O)N[C@@H](CO)C(=O)N[C@H](Cc1c(F)c(F)c(F)c(F)c1F)C(=O)N[C@@H](Cc1c(F)c(F)c(F)c(F)c1F)C(=O)N[C@@H](CCCNC(=N)N)C(=O)O` [Compound B10166, DArg-Arg-Pro-Hyp-Gly-Thi-Ser-Df5f-f5f-Arg]: the Kb in assay [1] is 7.94 nM; in assay [2] (setting [3]), 10 nM.
Take `N=C(N)NCCC[C@@H](N)C(=O)N[C@@H](CCCNC(=N)N)C(=O)N1CCC[C@H]1C(=O)N1C[C@H](O)C[C@H]1C(=O)NCC(=O)N[C@@H](Cc1cccs1)C(=O)N[C@@H](CO)C(=O)N1Cc2ccccc2C[C@@H]1C(=O)N[C@@H](Cc1c(F)c(F)c(F)c(F)c1F)C(=O)N[C@@H](CCCNC(=N)N)C(=O)O` [Compound B10168, DArg-Arg-Pro-Hyp-Gly-Thi-Ser-DTic-f5f-Arg]: in assay [1], the “Uterus, agonist activity as percent BK activity” value is reported as 4%. The Kb in assay [2] (setting [3]) is 3160 nM.
On to `CC(C)C[C@H](NC(=O)[C@@H](Cc1c(F)c(F)c(F)c(F)c1F)NC(=O)[C@H](CO)NC(=O)[C@H](Cc1cccs1)NC(=O)CNC(=O)[C@@H]1C[C@@H](O)CN1C(=O)[C@@H]1CCCN1C(=O)[C@H](CCCNC(=N)N)NC(=O)[C@H](N)CCCNC(=N)N)C(=O)N[C@@H](CCCNC(=N)N)C(=O)O` [Compound B10172, DArg-Arg-Pro-Hyp-Gly-Thi-Ser-Df5f-Leu-Arg] (H-[dR]RP[Hyp]G[2Thi]S[dPhe(F5)]LR-OH; N-terminus and C-terminus assumed), for which the Kb was 5.01 nM in assay [1] and 50.1 nM in assay [2] (setting [3]).
The corresponding values for `CC(C)C[C@H](NC(=O)[C@@H](Cc1c(F)c(F)c(F)c(F)c1F)NC(=O)[C@H](CO)NC(=O)[C@@H](NC(=O)CNC(=O)[C@@H]1C[C@@H](O)CN1C(=O)[C@@H]1CCCN1C(=O)[C@H](CCCNC(=N)N)NC(=O)[C@H](N)CCCNC(=N)N)C1Cc2ccccc2C1)C(=O)N[C@@H](CCCNC(=N)N)C(=O)O` [Compound B10174, DArg-Arg-Pro-Hyp-Gly-Igl-Ser-Df5f-Leu-Arg] (H-[dR]RP[Hyp]G[Igl]S[dPhe(F5)]LR-OH; N-terminus and C-terminus assumed) are 7.94 nM and 6.31 nM.
Taken in the same sequence, the figures for `N=C(N)NCCC[C@@H](N)C(=O)N[C@@H](CCCNC(=N)N)C(=O)N1CCC[C@H]1C(=O)N1C[C@H](O)C[C@H]1C(=O)NCC(=O)N[C@H](C(=O)N[C@@H](CO)C(=O)N[C@@H](C(=O)N[C@@H](Cc1c(F)c(F)c(F)c(F)c1F)C(=O)N[C@@H](CCCNC(=N)N)C(=O)O)C1Cc2ccccc2C1)C1Cc2ccccc2C1` [Compound B10178, DArg-Arg-Pro-Hyp-Gly-Igl-Ser-DIgl-f5f-Arg] were 31600 nM and 398 nM.
For `N=C(N)NCCC[C@@H](N)C(=O)N[C@@H](CCCNC(=N)N)C(=O)N1CCC[C@H]1C(=O)N1C[C@H](O)C[C@H]1C(=O)NCC(=O)N[C@H](C(=O)N[C@@H](CO)C(=O)N[C@H](Cc1c(F)c(F)c(F)c(F)c1F)C(=O)N[C@H](C(=O)N[C@@H](CCCNC(=N)N)C(=O)O)C1CCCCC1)C1Cc2ccccc2C1` [Compound B10180, DArg-Arg-Pro-Hyp-Gly-Igl-Ser-Df5f-Chg-Arg], the values for the Kb in assay [1] and in assay [2] (setting [3]) were 6.31 nM and 7.94 nM, respectively.
Turning to `N=C(N)NCCC[C@@H](N)C(=O)N[C@@H](CCCNC(=N)N)C(=O)N1CCC[C@H]1C(=O)N1C[C@H](O)C[C@H]1C(=O)NCC(=O)N[C@@H](Cc1cccs1)C(=O)N[C@@H](CO)C(=O)N[C@H](Cc1c(F)c(F)c(F)c(F)c1F)C(=O)N(CC(=O)N[C@@H](CCCNC(=N)N)C(=O)O)C1CCCCCC1` [Compound B10204, DArg-Arg-Pro-Hyp-Gly-Thi-Ser-Df5f-Nc7G-Arg], the figures for the Kb in assay [1] and in assay [2] (setting [3]) were 631 nM and 12.6 nM, respectively.
For `N=C(N)NCCC[C@@H](N)C(=O)N[C@@H](CCCNC(=N)N)C(=O)N1CCC[C@H]1C(=O)N1C[C@H](O)C[C@H]1C(=O)NCC(=O)N[C@H](C(=O)N[C@@H](CO)C(=O)N[C@H](Cc1c(F)c(F)c(F)c(F)c1F)C(=O)N(CC(=O)N[C@@H](CCCNC(=N)N)C(=O)O)C1CCCCCC1)C1Cc2ccccc2C1` [Compound B10206, DArg-Arg-Pro-Hyp-Gly-Igl-Ser-Df5f-Nc7G-Arg], the Kb is 1.26 nM in assay [1] and 15.8 nM in assay [2] (setting [3]).
For the compound `N=C(N)NCCC[C@@H](N)C(=O)N[C@@H](CCCNC(=N)N)C(=O)N1CCC[C@H]1C(=O)N1C[C@H](O)C[C@H]1C(=O)NCC(=O)N[C@@H](Cc1cccs1)C(=O)N[C@@H](CO)C(=O)N[C@H](Cc1c(F)c(F)c(F)c(F)c1F)C(=O)N(CC(=O)N[C@@H](CCCNC(=N)N)C(=O)O)C1CCCCC1` [Compound B10208, DArg-Arg-Pro-Hyp-Gly-Thi-Ser-Df5f-NchG-Arg], in assay [1] (rat uterus, agonist activity), the “Uterus, agonist activity as percent BK activity” value was determined as 14.0%. Further, the Kb in assay [2] (Ileum, pA2 (I=inhibitor), number in parenthesis is pA2) was 2 nM.
Take `N=C(N)NCCC[C@@H](N)C(=O)N[C@@H](CCCNC(=N)N)C(=O)N1CCC[C@H]1C(=O)N[C@H](C(=O)NCC(=O)N[C@H](C(=O)N[C@@H](CO)C(=O)N[C@H](Cc1c(F)c(F)c(F)c(F)c1F)C(=O)N1[C@H](C(=O)N[C@@H](CCCNC(=N)N)C(=O)O)C[C@@H]2CCCC[C@@H]21)C1Cc2ccccc2C1)C1Cc2ccccc2C1` [Compound B10214, DArg-Arg-Pro-Igl-Gly-Igl-Ser-Df5f-Oic-Arg]: the results for the Kb in assay [1] and in assay [2] (setting [3]) were 6.31 nM and 7.94 nM, respectively.
The corresponding values for `N=C(N)NCCC[C@@H](N)C(=O)N[C@@H](CCCNC(=N)N)C(=O)N1CCC[C@H]1C(=O)N[C@@H](C(=O)NCC(=O)N[C@H](C(=O)N[C@@H](CO)C(=O)N[C@H](Cc1c(F)c(F)c(F)c(F)c1F)C(=O)N1[C@H](C(=O)N[C@@H](CCCNC(=N)N)C(=O)O)C[C@@H]2CCCC[C@@H]21)C1Cc2ccccc2C1)C1Cc2ccccc2C1` [Compound B10216, DArg-Arg-Pro-DIgl-Gly-Igl-Ser-Df5f-Oic-Arg] are 39.8 nM and 158 nM.
Taken in the same sequence, the figures for `N=C(N)NCCC[C@H](NC(=O)[C@H](Cc1c(F)c(F)c(F)c(F)c1F)NC(=O)[C@@H](Cc1c(F)c(F)c(F)c(F)c1F)NC(=O)[C@H](CO)NC(=O)[C@@H](NC(=O)CNC(=O)[C@@H]1C[C@@H](O)CN1C(=O)[C@@H]1CCCN1C(=O)[C@H](CCCNC(=N)N)NC(=O)[C@@H](N)CCCNC(=N)N)C1Cc2ccccc2C1)C(=O)O` [Compound B10230, Arg-Arg-Pro-Hyp-Gly-Igl-Ser-Df5f-f5f-Arg] were 1580 nM and 20 nM.
The corresponding values for `N=C(N)NCCC[C@@H](N)C(=O)N[C@@H](CCCNC(=N)N)C(=O)N1CCC[C@H]1C(=O)N1C[C@H](O)C[C@H]1C(=O)NCC(=O)N[C@H](C(=O)N[C@@H](CO)C(=O)N[C@H](Cc1c(F)c(F)c(F)c(F)c1F)C(=O)N[C@@H](Cc1c(F)c(F)c(F)c(F)c1F)C(=O)N[C@@H](CCCNC(=N)N)C(=O)O)C1Cc2ccccc2C1` [Compound B10232, DArg-Arg-Pro-Hyp-Gly-Igl-Ser-Df5f-f5f-Arg] are 7.94 nM and 20 nM.

For the origin of these results see patent publication US5935932A, “Bradykinin antagonists containing pentafluorophenylalanine” (University Technology Corporation, priority 1998, dated 1999).
